Measured values from ChEMBL document CHEMBL2062364, “Discovery and optimization of new benzimidazole- and benzoxazole-pyrimidone selective PI3Kβ inhibitors for the treatment of phosphatase and TENsin homologue (PTEN)-deficient cancers” (J Med Chem, 2012).
≈ marks a conversion by molar mass, not a printed value.

Tests used:
[1] = target: Phosphatidylinositol 4,5-bisphosphate 3-kinase catalytic subunit alpha isoform (Homo sapiens, UniProt P42336); experiment: Inhibition of N-terminus poly-His tagged human PI3Kalpha expressed in baculovirus infected insect sf9 cells coexpressing p85alpha using PI(4,5)P2 as substrate preincubated with compound for 15 mins measured after 10 mins by HTRF assay
[2] = target: Phosphatidylinositol 4,5-bisphosphate 3-kinase catalytic subunit gamma isoform (Homo sapiens, UniProt P48736); experiment: Inhibition of N-terminus poly-His tagged human PI3Kgamma expressed in baculovirus infected insect sf9 cells using PI(4,5)P2 as substrate preincubated with compound for 15 mins measured after 10 mins by HTRF assay
[3] = target: T1, Phosphatidylinositol 4,5-bisphosphate 3-kinase catalytic subunit delta isoform (Homo sapiens, UniProt O00329); experiment: Inhibition of poly-His tagged human PI3Kdelta expressed in baculovirus infected insect sf9 cells coexpressing p85alpha using PI(4,5)P2 as substrate preincubated with compound for 15 mins measured after 10 mins by HTRF assay
T1 sequence (O00329 whole entry): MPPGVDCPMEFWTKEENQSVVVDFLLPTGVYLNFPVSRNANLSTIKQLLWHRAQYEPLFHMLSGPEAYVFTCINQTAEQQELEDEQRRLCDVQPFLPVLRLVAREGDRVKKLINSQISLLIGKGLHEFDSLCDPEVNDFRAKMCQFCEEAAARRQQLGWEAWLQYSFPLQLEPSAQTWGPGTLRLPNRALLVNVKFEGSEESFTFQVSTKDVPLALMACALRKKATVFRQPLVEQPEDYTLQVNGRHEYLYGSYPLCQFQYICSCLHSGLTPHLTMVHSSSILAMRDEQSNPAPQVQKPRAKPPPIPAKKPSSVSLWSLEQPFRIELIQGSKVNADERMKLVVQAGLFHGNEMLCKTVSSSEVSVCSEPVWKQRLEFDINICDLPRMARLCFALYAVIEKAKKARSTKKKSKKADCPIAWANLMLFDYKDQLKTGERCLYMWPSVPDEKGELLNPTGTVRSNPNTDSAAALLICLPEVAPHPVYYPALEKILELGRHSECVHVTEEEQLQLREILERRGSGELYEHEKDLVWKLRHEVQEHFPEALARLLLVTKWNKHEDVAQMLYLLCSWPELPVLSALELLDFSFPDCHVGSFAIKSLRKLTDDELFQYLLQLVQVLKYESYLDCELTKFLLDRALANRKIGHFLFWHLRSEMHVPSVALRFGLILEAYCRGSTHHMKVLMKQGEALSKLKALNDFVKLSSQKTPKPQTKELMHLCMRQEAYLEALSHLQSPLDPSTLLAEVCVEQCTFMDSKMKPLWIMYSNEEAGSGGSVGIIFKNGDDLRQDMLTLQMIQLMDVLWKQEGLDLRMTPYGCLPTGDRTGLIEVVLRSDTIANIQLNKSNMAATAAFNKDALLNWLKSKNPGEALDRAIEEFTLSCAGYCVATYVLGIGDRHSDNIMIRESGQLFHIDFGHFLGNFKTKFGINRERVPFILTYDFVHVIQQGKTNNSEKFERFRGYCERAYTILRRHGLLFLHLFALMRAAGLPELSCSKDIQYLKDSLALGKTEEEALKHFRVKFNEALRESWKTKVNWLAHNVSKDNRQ

[4] = target: Serine/threonine-protein kinase mTOR (Homo sapiens, UniProt P42345); experiment: Inhibition of mTOR
[5] = target: T2, Phosphatidylinositol 4,5-bisphosphate 3-kinase catalytic subunit beta isoform (Homo sapiens, UniProt P42338); experiment: Inhibition of N-terminus poly-His tagged human PI3Kbeta expressed in baculovirus infected insect […] cells coexpressing p85alpha using PI(4,5)P2 as substrate preincubated with compound for 15 mins measured after 10 mins by HTRF assay
[6] = target: T2, Phosphatidylinositol 4,5-bisphosphate 3-kinase catalytic subunit beta isoform; experiment: Inhibition of human PI3Kbeta-mediated Akt phosphorylation at Ser473 residue expressed in PTEN-deficient human PC3 cells by chemiluminescence assay; format: cell-based, PC-3
[7] = Apparent permeability of the compound across human Caco2 cells; format: ADME, cell-based; conditions: Caco-2
[8] = Drug metabolism in human liver microsomes; format: ADME, Microsome; conditions: read-out: Drug metabolism
[9] = Drug metabolism in mouse liver microsomes; format: ADME, Microsome; conditions: read-out: Drug metabolism
[10] = Thermodynamic solubility of the compound in phosphate buffer at pH 7.4 after 16 hrs by HPLC analysis; format: physicochemical; conditions: read-out: Therm_solubility
Cytochrome P450 3A4 = Cytochrome P450 3A4 (Homo sapiens, UniProt P08684); experiment: Inhibition of human recombinant CPY3A4
Chain of Cytochrome P450 3A4 (P08684 whole entry): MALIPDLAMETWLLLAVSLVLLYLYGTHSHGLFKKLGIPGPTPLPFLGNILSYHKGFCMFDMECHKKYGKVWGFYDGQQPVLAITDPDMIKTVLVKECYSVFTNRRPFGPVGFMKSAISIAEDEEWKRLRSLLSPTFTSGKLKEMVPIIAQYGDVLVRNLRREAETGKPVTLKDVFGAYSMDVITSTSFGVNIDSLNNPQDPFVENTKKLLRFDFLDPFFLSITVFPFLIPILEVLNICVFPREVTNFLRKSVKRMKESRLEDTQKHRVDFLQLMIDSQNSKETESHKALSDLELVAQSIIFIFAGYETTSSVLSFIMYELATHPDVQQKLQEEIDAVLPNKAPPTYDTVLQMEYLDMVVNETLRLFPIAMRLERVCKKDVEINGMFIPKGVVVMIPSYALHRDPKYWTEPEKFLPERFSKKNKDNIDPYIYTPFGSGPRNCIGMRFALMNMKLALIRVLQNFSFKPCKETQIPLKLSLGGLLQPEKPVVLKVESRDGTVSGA

Chain of Phosphatidylinositol 4,5-bisphosphate 3-kinase catalytic subunit gamma isoform (P48736 whole entry, canonical isoform): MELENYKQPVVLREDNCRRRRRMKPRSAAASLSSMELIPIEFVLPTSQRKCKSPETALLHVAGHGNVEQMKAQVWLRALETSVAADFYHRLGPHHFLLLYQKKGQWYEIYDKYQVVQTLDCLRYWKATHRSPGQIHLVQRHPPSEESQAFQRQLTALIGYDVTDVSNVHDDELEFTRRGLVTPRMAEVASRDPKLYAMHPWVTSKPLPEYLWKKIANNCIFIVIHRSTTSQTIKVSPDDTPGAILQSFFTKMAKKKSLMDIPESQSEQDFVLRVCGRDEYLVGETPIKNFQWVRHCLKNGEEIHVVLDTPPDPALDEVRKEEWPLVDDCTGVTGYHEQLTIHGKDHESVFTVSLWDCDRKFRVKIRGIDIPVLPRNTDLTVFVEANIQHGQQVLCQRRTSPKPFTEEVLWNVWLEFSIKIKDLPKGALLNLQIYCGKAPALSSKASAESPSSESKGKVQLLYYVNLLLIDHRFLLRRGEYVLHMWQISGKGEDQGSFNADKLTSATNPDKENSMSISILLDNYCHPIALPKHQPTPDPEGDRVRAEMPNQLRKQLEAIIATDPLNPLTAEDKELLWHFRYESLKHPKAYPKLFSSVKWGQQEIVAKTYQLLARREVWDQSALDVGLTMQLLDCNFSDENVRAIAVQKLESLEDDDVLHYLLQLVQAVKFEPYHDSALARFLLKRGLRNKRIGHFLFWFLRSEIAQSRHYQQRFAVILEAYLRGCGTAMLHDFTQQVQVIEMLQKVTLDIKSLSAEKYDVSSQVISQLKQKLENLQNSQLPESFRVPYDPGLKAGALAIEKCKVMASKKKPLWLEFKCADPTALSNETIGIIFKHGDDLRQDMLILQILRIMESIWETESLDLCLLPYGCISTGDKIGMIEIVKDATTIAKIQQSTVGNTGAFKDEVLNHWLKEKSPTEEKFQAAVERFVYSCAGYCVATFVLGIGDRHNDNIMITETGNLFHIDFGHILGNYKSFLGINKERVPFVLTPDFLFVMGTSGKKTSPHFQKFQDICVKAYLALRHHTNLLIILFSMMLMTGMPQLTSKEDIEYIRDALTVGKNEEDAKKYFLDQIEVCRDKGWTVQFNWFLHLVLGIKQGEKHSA
Chain of Phosphatidylinositol 4,5-bisphosphate 3-kinase catalytic subunit alpha isoform (P42336 whole entry, canonical isoform): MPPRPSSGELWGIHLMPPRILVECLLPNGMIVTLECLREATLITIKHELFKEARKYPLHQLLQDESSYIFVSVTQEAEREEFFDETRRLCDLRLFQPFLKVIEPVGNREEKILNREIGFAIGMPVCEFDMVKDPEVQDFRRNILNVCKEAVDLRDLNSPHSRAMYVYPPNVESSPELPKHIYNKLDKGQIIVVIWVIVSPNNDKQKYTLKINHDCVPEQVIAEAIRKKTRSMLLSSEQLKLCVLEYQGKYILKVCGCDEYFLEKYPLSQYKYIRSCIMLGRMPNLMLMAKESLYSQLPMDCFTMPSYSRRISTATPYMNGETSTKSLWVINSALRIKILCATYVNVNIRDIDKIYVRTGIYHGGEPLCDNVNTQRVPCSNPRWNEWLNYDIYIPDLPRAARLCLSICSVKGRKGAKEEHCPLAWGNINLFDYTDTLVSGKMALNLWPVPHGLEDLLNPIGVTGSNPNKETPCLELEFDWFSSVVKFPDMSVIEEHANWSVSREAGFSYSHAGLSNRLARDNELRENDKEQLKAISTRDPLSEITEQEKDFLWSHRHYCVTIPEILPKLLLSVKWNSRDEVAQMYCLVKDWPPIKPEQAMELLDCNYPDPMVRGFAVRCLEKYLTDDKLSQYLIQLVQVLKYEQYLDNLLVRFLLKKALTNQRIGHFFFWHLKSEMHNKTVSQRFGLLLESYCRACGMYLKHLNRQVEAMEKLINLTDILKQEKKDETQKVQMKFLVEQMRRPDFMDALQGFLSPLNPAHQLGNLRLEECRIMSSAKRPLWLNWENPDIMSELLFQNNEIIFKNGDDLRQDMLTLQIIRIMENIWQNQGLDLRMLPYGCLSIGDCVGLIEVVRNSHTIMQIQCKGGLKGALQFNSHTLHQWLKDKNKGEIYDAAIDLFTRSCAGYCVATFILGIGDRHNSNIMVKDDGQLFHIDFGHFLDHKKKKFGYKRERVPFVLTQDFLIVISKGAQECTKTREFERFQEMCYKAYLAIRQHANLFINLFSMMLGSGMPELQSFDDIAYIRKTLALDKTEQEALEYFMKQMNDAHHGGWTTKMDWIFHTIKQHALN
T2 sequence (P42338 whole entry, canonical isoform): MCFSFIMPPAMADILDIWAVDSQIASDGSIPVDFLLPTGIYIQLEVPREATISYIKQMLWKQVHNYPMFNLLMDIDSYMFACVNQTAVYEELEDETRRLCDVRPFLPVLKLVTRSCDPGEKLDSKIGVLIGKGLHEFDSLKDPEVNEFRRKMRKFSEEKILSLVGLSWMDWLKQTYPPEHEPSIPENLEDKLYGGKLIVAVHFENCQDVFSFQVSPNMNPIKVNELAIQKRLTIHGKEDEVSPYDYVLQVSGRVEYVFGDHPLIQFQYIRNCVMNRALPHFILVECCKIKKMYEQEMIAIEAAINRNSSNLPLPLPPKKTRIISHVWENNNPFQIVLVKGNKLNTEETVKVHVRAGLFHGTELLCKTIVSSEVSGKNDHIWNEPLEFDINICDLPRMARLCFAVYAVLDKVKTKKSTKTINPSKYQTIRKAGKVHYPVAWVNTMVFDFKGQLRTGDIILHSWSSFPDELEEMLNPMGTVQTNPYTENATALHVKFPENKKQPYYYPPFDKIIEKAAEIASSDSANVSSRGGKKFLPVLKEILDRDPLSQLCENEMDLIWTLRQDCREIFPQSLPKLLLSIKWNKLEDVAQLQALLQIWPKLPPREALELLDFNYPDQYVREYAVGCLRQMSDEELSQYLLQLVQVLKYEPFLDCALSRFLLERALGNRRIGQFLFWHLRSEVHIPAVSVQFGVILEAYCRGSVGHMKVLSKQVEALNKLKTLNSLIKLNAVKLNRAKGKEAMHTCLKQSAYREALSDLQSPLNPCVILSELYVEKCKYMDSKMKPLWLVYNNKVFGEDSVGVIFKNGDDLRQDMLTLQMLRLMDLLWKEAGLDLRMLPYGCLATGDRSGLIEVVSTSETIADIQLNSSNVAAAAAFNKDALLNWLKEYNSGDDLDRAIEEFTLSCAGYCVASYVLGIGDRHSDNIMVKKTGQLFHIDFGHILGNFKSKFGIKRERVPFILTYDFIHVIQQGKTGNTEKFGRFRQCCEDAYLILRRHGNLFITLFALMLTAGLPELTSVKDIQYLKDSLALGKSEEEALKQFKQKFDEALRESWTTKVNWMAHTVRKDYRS

Row | Compound | IC50 [1] | IC50 [2] | IC50 [3] | IC50 [4] | IC50 [5] | IC50 [6] | Papp [7] | metabolised [8] | metabolised [9] | solubility thermodynamic at 16 h [10] | IC50 (Cytochrome P450 3A4)
1 | Cn1c(Cc2nc(N3CCOCC3)cc(=O)[nH]2)nc2ccc(-c3ccccc3)cc21 | 7800 nM | > 10000 nM | 3410 nM | > 10000 nM | 3410 nM | – | – | – | – | – | –
2 | O=c1cc(N2CCOCC2)nc(Cc2nc3c(F)cccc3o2)[nH]1 | > 10000 nM | > 10000 nM | 8450 nM | > 10000 nM | 567 nM | 125 nM | – | – | – | – | –
3 | O=c1cc(N2CCOCC2)nc(Cc2nc3ccc(F)cc3o2)[nH]1 | > 10000 nM | > 10000 nM | 9040 nM | > 10000 nM | 126 nM | 49 nM | – | – | – | – | –
4 | O=c1cc(N2CCOCC2)nc(Cc2nc3cccc(F)c3o2)[nH]1 | > 10000 nM | > 10000 nM | 2560 nM | > 10000 nM | 373 nM | 88 nM | – | – | – | – | –
5 | Cn1c(Cc2nc3ccccc3o2)nc(N2CCOCC2)cc1=O | > 10000 nM | – | – | > 10000 nM | 1330 nM | – | – | – | – | – | –
6 | Cc1cccc2oc(Cc3nc(N4CCOCC4)cc(=O)[nH]3)nc12 | > 10000 nM | 3330 nM | 2750 nM | > 10000 nM | 461 nM | 75 nM | – | – | – | – | –
7 | Cc1ccc2oc(Cc3nc(N4CCOCC4)cc(=O)[nH]3)nc2c1 | > 10000 nM | – | – | > 10000 nM | 960 nM | 233 nM | – | – | – | – | –
8 | Cc1ccc2nc(Cc3nc(N4CCOCC4)cc(=O)[nH]3)oc2c1 | 9770 nM | > 10000 nM | 1140 nM | > 10000 nM | 526 nM | 143 nM | – | – | – | – | –
9 | Cc1cccc2nc(Cc3nc(N4CCOCC4)cc(=O)[nH]3)oc12 | 7150 nM | > 10000 nM | 2380 nM | > 10000 nM | 425 nM | 202 nM | – | – | – | – | –
10 | O=c1cc(N2CCOCC2)nc(Cc2nc3c(Br)cccc3o2)[nH]1 | > 10000 nM | > 10000 nM | 2270 nM | > 10000 nM | 585 nM | 127 nM | – | – | – | – | –
11 | O=c1cc(N2CCOCC2)nc(Cc2nc3c(-c4ccccc4)cccc3o2)[nH]1 | 7750 nM | > 10000 nM | 373 nM | > 10000 nM | 19 nM | 13 nM | 31 ×10⁻⁶ cm/s | 40% | 26% | 3 µM (≈ 1.17 µg/mL) | –
12 | O=c1cc(N2CCOCC2)nc(Cc2nc3c(-c4ccccn4)cccc3o2)[nH]1 | 3330 nM | > 10000 nM | 2170 nM | > 10000 nM | 336 nM | 113 nM | – | – | – | – | –
13 | O=c1cc(N2CCOCC2)nc(Cc2nc3c(-c4cccnc4)cccc3o2)[nH]1 | > 10000 nM | > 10000 nM | 335 nM | > 10000 nM | 156 nM | 44 nM | – | – | – | – | –
14 | O=c1cc(N2CCOCC2)nc(Cc2nc3c(-c4ccncc4)cccc3o2)[nH]1 | > 10000 nM | > 10000 nM | 995 nM | > 10000 nM | 158 nM | 47 nM | – | – | – | – | –
15 | O=c1cc(N2CCOCC2)nc(Cc2nc3ccccc3o2)[nH]1 | > 10000 nM | > 10000 nM | 779 nM | > 10000 nM | 82 nM | 62 nM | 19.9 ×10⁻⁶ cm/s | 41% | 7% | 160 µM (≈ 50 µg/mL) | > 40000 nM
16 | O=C(Cc1nc(N2CCOCC2)cc(=O)[nH]1)Nc1ccccc1 | 2130 nM | > 10000 nM | 118 nM | > 10000 nM | 42 nM | – | – | – | – | – | –
